The record followed here is US20150299188A1, “HETEROCYCLIC COMPOUND” (priority 2012, published 2015).

Structures are written as SMILES.

This assay concerns FLAP (5-lipoxygenase activating protein). Kind of assay: In vitro binding test: displacement of [3H]-7-chloro-3-(5-((3-fluoropyridin-2-yl)methoxy)-2-methylphenyl)-3,4-dihydroquinazolin-2(1H)-one from Sf9 microsome fractions. Also noted: species or system human and mouse. The following applies: Sf9 microsome fractions expressing FLAP; 100% = radioligand binding with 10 μM sodium 3-(3-(tert-butylsulfanyl)-1-(4-chlorobenzyl)-5-isopropyl-1H-indol-2-yl)-2,2-dimethylpropanoate, 0% = DMSO; test compound concentration not given. As for the experimental part:
As an assay buffer, 100 mM Tris-HCl, pH 7.5, 140 mM NaCl, 2 mM EDTA, 0.5 mM dithiothreitol, 5% glycerol, 0.05% Tween20 was used. Sf9 microsome fractions expressing human and mouse FLAPs were dispensed by 50 μL to a 96-well plate at 2 μg/mL. Furthermore, a test compound (25 μL) diluted 4-fold of the final concentration with the assay buffer was added and mixed therewith, and the mixture was incubated at room temperature for 10 min. Furthermore, 120 nM [^3H]-7-chloro-3-(5-((3-fluoropyridin-2-yl)methoxy)-2-methylphenyl)-3,4-dihydroquinazolin-2(1H)-one was added by 25 μL, and mixed therewith, and the mixture was incubated at room temperature for 60 min. Thereafter, the cells were transferred to a 96-well GF/B Unifilter plate with a FilterMate cell harvester, and washed 3 times with a wash buffer (100 mM Tris-HCl pH 7.5, 0.05% Tween20, 200 μL) cooled to 4° C. The GF/B Unifilter plate was dried at 37° C., Microscint 0 was added and measured by TopCount NXT (PerkinElmer). As for the inhibitory activity, the inhibitory rate was calculated wherein the [^3H]-7-chloro-3-(5-((3-fluoropyridin-2-yl)methoxy)-2-methylphenyl)-3,4-dihydroquinazolin-2(1H)-one binding amount in the presence of 10 μM sodium 3-(3-(tert-butylsulfanyl)-1-(4-chlorobenzyl)-5-isopropyl-1H-indol-2-yl)-2,2-dimethylpropanoate was 100%, and the [^3H]-7-chloro-3-(5-((3-fluoropyridin-2-yl)methoxy)-2-methylphenyl)-3,4-dihydroquinazolin-2(1H)-one binding amount in the presence of DMSO was 0%.
(In general: In a radioligand displacement assay an active substance lowers the binding of a labelled ligand.)

`O=C1Nc2c(Cl)cnc(Cl)c2CN1c1cc2c(cc1Cl)CCC(c1ncccc1F)O2` (centres unmarked) [Example 53, 5,8-dichloro-3-(6-chloro-2-(3-fluoropyridin-2-yl)-3,4-dihydro-2H-chromen-7-yl)-3,4-dihydropyrido[4,3-d]pyrimidin-2(1H)-one]: the “inhibitory rate (%)” value came to 103%.
The same measure for `Cc1cc2c(cc1N1Cc3c(ccnc3-c3ncco3)NC1=O)OC(c1ncccc1F)CC2` (centres unmarked) [Example 46, 3-(2-(3-fluoropyridin-2-yl)-6-methyl-3,4-dihydro-2H-chromen-7-yl)-5-(1,3-oxazol-2-yl)-3,4-dihydropyrido[4,3-d]pyrimidin-2(1H)-one]: 104%; for `NC(=O)c1cc2c(c(C3CC3)n1)CN(c1cc3c(cc1Cl)CCC(c1ncccc1F)O3)C(=O)N2` (centres unmarked) [Example 95, 3-(6-chloro-2-(3-fluoropyridin-2-yl)-3,4-dihydro-2H-chromen-7-yl)-5-cyclopropyl-2-oxo-1,2,3,4-tetrahydropyrido[4,3-d]pyrimidine-7-carboxamide]: 89%; for `O=C1Nc2cc(-c3n[nH]c(=O)o3)nc(C3CC3)c2CN1c1cc2c(cc1Cl)CCC(c1ncccc1F)O2` (centres unmarked) [Example 117, 3-(6-chloro-2-(3-fluoropyridin-2-yl)-3,4-dihydro-2H-chromen-7-yl)-5-cyclopropyl-7-(5-oxo-4,5-dihydro-1,3,4-oxadiazol-2-yl)-3,4-dihydropyrido[4,3-d]pyrimidin-2(1H)-one]: 106%.
Then `Cn1c(=O)n(-c2cccc(OCc3c(F)cccc3F)c2)c(=O)c2ccncc21` [Example 331, 3-(3-((2,6-difluorobenzyl)oxy)phenyl)-1-methylpyrido[3,4-d]pyrimidine-2,4(1H,3H)-dione], with 51%.
Consider `Cc1cc2c(cc1N1Cc3c(cc(-c4ccnn4C)nc3C3CC3)NC1=O)OC(c1ncccc1F)CC2` (centres unmarked) [Example 93, 5-cyclopropyl-3-(2-(3-fluoropyridin-2-yl)-6-methyl-3,4-dihydro-2H-chromen-7-yl)-7-(1-methyl-1H-pyrazol-5-yl)-3,4-dihydropyrido[4,3-d]pyrimidin-2(1H)-one], for which the “inhibitory rate (%)” value amounted to 112%.
Regarding `Cc1ccc(OCc2ncccc2F)cc1N1Cc2ccc(C(=O)NC(C)C)cc2NC1=O` [Example 270, 3-(5-((3-fluoropyridin-2-yl)methoxy)-2-methylphenyl)-N-isopropyl-2-oxo-1,2,3,4-tetrahydroquinazoline-7-carboxamide], the “inhibitory rate (%)” value was determined as 104%.
Then `O=C1Nc2ccccc2CN1c1cc(OCc2ncccc2F)ccc1Cl` [Example 231, 3-(2-chloro-5-((3-fluoropyridin-2-yl)methoxy)phenyl)-3,4-dihydroquinazolin-2(1H)-one], with 103%.
Turning to `Cc1ncc(Cl)c2c1NC(=O)N(c1cc3c(cc1Cl)CCC(c1ncccc1F)O3)C2` (centres unmarked) [Example 7, 5-chloro-3-(6-chloro-2-(3-fluoropyridin-2-yl)-3,4-dihydro-2H-chromen-7-yl)-8-methyl-3,4-dihydropyrido[3,4-d]pyrimidin-2(1H)-one], the “inhibitory rate (%)” value worked out at 98%.
Then `Cc1ccc(OCc2ncccc2F)cc1-n1c(=O)[nH]c2cc(NS(=O)(=O)C3CC3)ccc2c1=O` [Example 362, N-(3-(5-((3-fluoropyridin-2-yl)methoxy)-2-methylphenyl)-2,4-dioxo-1,2,3,4-tetrahydroquinazolin-7-yl)cyclopropanesulfonamide], with 110%; and `Cc1cc2c(cc1N1Cc3c(Cl)cnc(-c4c(C)noc4C)c3NC1=O)OC(c1ncccc1F)CC2` (single isomer, unassigned; (-)) [Example 11, (−)-5-chloro-8-(3,5-dimethyl-1,2-oxazol-4-yl)-3-(2-(3-fluoropyridin-2-yl)-6-methyl-3,4-dihydro-2H-chromen-7-yl)-3,4-dihydropyrido[3,4-d]pyrimidin-2(1H)-one], with 109%; and `O=C1Nc2cncc(C(F)(F)F)c2CN1c1cc2c(cc1Cl)CCC(c1ncccc1F)O2` (centres unmarked) [Example 78, 3-(6-chloro-2-(3-fluoropyridin-2-yl)-3,4-dihydro-2H-chromen-7-yl)-5-(trifluoromethyl)-3,4-dihydropyrido[3,4-d]pyrimidin-2(1H)-one], with 105%.
The same measure for `O=C1Nc2cc(CO)ccc2CN1c1cc(OCc2c(F)cccc2F)ccc1F` [Example 234, 3-(5-((2,6-difluorobenzyl)oxy)-2-fluorophenyl)-7-(hydroxymethyl)-3,4-dihydroquinazolin-2(1H)-one]: 85%; for `O=C1OCCN1c1cc2c(c(C3CC3)n1)CN(c1cc3c(cc1Cl)CCC(c1ncccc1F)O3)C(=O)N2` (centres unmarked) [Example 113, 3-(6-chloro-2-(3-fluoropyridin-2-yl)-3,4-dihydro-2H-chromen-7-yl)-5-cyclopropyl-7-(2-oxo-1,3-oxazolidin-3-yl)-3,4-dihydropyrido[4,3-d]pyrimidin-2(1H)-one]: 114%; for `O=C1Nc2c(ccnc2C(F)(F)F)CN1c1cc2c(cc1Cl)CCC(c1ncccc1F)O2` (centres unmarked) [Example 66, 3-(6-chloro-2-(3-fluoropyridin-2-yl)-3,4-dihydro-2H-chromen-7-yl)-8-(trifluoromethyl)-3,4-dihydropyrido[3,4-d]pyrimidin-2(1H)-one]: 98%.
Then `O=C1CNCCN1c1cc2c(c(C3CC3)n1)CN(c1cc3c(cc1Cl)CCC(c1ncccc1F)O3)C(=O)N2` (centres unmarked) [Example 125, 3-(6-chloro-2-(3-fluoropyridin-2-yl)-3,4-dihydro-2H-chromen-7-yl)-5-cyclopropyl-7-(2-oxopiperazin-1-yl)-3,4-dihydropyrido[4,3-d]pyrimidin-2(1H)-one], with 95%; and `Cc1ccc(OCc2c(F)cccc2F)cc1N1Cc2cccc(CO)c2NC1=O` [Example 194, 3-(5-((2,6-difluorobenzyl)oxy)-2-methylphenyl)-8-(hydroxymethyl)-3,4-dihydroquinazolin-2(1H)-one], with 71%.
Consider `O=C1Nc2cc(CO)ccc2CN1c1cc(OCc2c(F)cccc2F)ccc1C(F)(F)F` [Example 239, 3-(5-((2,6-difluorobenzyl)oxy)-2-(trifluoromethyl)phenyl)-7-(hydroxymethyl)-3,4-dihydroquinazolin-2(1H)-one], for which the “inhibitory rate (%)” value is on record as 86%.
Then `N#Cc1ccc(OCc2ncccc2F)cc1N1Cc2c(Cl)cccc2NC1=O` [Example 278, 2-(5-chloro-2-oxo-1,4-dihydroquinazolin-3(2H)-yl)-4-((3-fluoropyridin-2-yl)methoxy)benzonitrile], with 96%; and `Cc1ccc(OCc2c(F)cccc2F)cc1N1Cc2ccc(C(=O)NC(C)(C)C(=O)O)cc2NC1=O` [Example 207, N-((3-(5-((2,6-difluorobenzyl)oxy)-2-methylphenyl)-2-oxo-1,2,3,4-tetrahydroquinazolin-7-yl)carbonyl)-2-methylalanine], with 87%; and `CC(C)(O)c1ccc2c(c1)NC(=O)N(c1cc(OCc3c(F)cccc3F)ccc1C(F)(F)F)C2` [Example 238, 3-(5-((2,6-difluorobenzyl)oxy)-2-(trifluoromethyl)phenyl)-7-(2-hydroxypropan-2-yl)-3,4-dihydroquinazolin-2(1H)-one], with 84%.
Then `CCCN(C)C(=O)c1ccc2c(c1)NC(=O)N(c1cc(OCc3ncccc3F)ccc1C)C2` [Example 266, 3-(5-((3-fluoropyridin-2-yl)methoxy)-2-methylphenyl)-N-methyl-2-oxo-N-propyl-1,2,3,4-tetrahydroquinazoline-7-carboxamide], with 105%; and `Cc1cc2c(cc1N1Cc3c(cc(C4CC4)nc3-c3ccnn3C)NC1=O)OC(c1ncccc1F)CC2` (centres unmarked) [Example 104, 7-cyclopropyl-3-(2-(3-fluoropyridin-2-yl)-6-methyl-3,4-dihydro-2H-chromen-7-yl)-5-(1-methyl-1H-pyrazol-5-yl)-3,4-dihydropyrido[4,3-d]pyrimidin-2(1H)-one], with 91%; and `COC1CN(C(=O)c2cc3c(c(C4CC4)n2)CN(c2cc4c(cc2Cl)CCC(c2ncccc2F)O4)C(=O)N3)C1` (centres unmarked) [Example 146, 3-(6-chloro-2-(3-fluoropyridin-2-yl)-3,4-dihydro-2H-chromen-7-yl)-5-cyclopropyl-7-((3-methoxyazetidin-1-yl)carbonyl)-3,4-dihydropyrido[4,3-d]pyrimidin-2(1H)-one], with 97%.
Then `Cc1ccc(OCc2c(F)cccc2F)cc1N1Cc2ccc(C(=O)N3CCCC(O)C3)cc2NC1=O` (centres unmarked) [Example 205, 3-(5-((2,6-difluorobenzyl)oxy)-2-methylphenyl)-7-((3-hydroxypiperidin-1-yl)carbonyl)-3,4-dihydroquinazolin-2(1H)-one], with 77%; and `O=C1Nc2c(N3CCCC3)ncc(Cl)c2CN1c1cc2c(cc1Cl)CCC(c1ncccc1F)O2` (centres unmarked) [Example 153, 5-chloro-3-(6-chloro-2-(3-fluoropyridin-2-yl)-3,4-dihydro-2H-chromen-7-yl)-8-(pyrrolidin-1-yl)-3,4-dihydropyrido[3,4-d]pyrimidin-2(1H)-one], with 104%.
